The record followed here is ChEMBL document CHEMBL1201862, “PubChem BioAssay data set” (2004).

Test systems include HCC 2998; PC-3; MCF7; OVCAR-3; Malme-3M; HOP-92; MDA-MB-231; OVCAR-8; COLO 205; IGROV-1; SK-MEL-28; MDA-N; SR; SF-295; M14; A498; SF-268; RPMI-8226; SK-MEL-2.
Holding throughout (assay): NCI-60 cell line screen, 48 h

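Results reflect a 48-hour exposure of cells in 96-well plates to compound at five concentrations. GI50 marks 50% less growth.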 The source made the active and inactive calls. Cut-off read from the data, not from the text of the source: active = GI50 up to about 1.1 µM and inactive = higher.

Take `O=C(N/C(=C/c1ccc(Cl)cc1)c1nc2ccccc2c(=O)n1Nc1ccc([N+](=O)[O-])cc1[N+](=O)[O-])c1ccccc1`: the GI50 with HCC 2998, in the assay with PC-3, in the assay with MCF7, in the assay on OVCAR-3, with Malme-3M and with HOP-92 was > 100 µM (inactive) throughout. The GI50 in the assay with MDA-MB-231, in the assay with OVCAR-8, in the assay with COLO 205, with IGROV-1, in the assay with SK-MEL-28 and in the assay on MDA-N was > 100 µM (inactive) each time. In addition, the GI50 in the assay on SR, with SF-295 and in the assay with M14 was > 100 µM (inactive) in each case.

For `CC1(C)CCC2=C(O1)c1ccccc1C(=O)C2=O` [LAPACHONE], the GI50 in the assay on PC-3 was 0.847 µM (active); in the assay with A498, 5.42 µM (inactive); in the assay on MCF7 it was 0.455 µM (active); in the assay with OVCAR-3, 0.234 µM (active); with Malme-3M, 0.427 µM (active); in the assay on HOP-92, 3.15 µM (inactive). In addition, the GI50 with MDA-MB-231 was 0.507 µM (active); in the assay on OVCAR-8, 0.398 µM (active); with COLO 205, 1.91 µM (inactive); with SF-268, 0.682 µM (active); in the assay with RPMI-8226, 0.284 µM (active); in the assay on MDA-N it was 0.2 µM (active). Also, the GI50 in the assay on SR was 0.215 µM (active); in the assay on SK-MEL-2 it was 1.42 µM (inactive); with SF-295, 0.7 µM (active); in the assay with M14, 0.316 µM (active).

In the case of `C=C(C)C1CCC(C(=O)O)CC1` (stereo unspecified), the GI50 in the assay with HCC 2998, in the assay on PC-3, with A498, with MCF7, with OVCAR-3 and with Malme-3M was > 100 µM (inactive) in each case. In addition, the GI50 in the assay with HOP-92, in the assay with MDA-MB-231, with OVCAR-8, in the assay on COLO 205, in the assay on SF-268 and with IGROV-1 was > 100 µM (inactive) throughout. In addition, the GI50 in the assay on RPMI-8226, in the assay on SK-MEL-28, with MDA-N, in the assay with SK-MEL-2, in the assay on SF-295 and in the assay on M14 was > 100 µM (inactive) each time.

Turning to `Oc1c(N2CCOCC2)cc(-c2cc(N3CCOCC3)c(O)c3ccccc23)c2ccccc12`, the GI50 in the assay on HCC 2998 is 2.04 µM (inactive); with PC-3 it was 2.64 µM (inactive); in the assay with MCF7, 2.12 µM (inactive); in the assay on OVCAR-3 it was 2.47 µM (inactive); in the assay on Malme-3M, 0.486 µM (active); with MDA-MB-231, 1.24 µM (inactive). The GI50 was 1.6 µM (inactive) with OVCAR-8; 1.93 µM (inactive) in the assay on COLO 205; 3.33 µM (inactive) with SF-268; 2.4 µM (inactive) in the assay with IGROV-1; 1.75 µM (inactive) in the assay with SK-MEL-28; 0.389 µM (active) with MDA-N. The GI50 in the assay with SR is 0.659 µM (active); with SK-MEL-2, 2.65 µM (inactive); with SF-295, 1.71 µM (inactive); in the assay with M14 it was 1.56 µM (inactive).

Turning to `COc1cccc(-c2nc(-c3cnccn3)n(Cc3ccccc3)n2)c1`, the GI50 is > 100 µM (inactive) in the assay with HCC 2998; > 100 µM (inactive) in the assay with PC-3; > 100 µM (inactive) in the assay with MCF7; > 100 µM (inactive) in the assay with OVCAR-3; 26.5 µM (inactive) in the assay with HOP-92; > 100 µM (inactive) in the assay with MDA-MB-231. Also, the GI50 in the assay with OVCAR-8 was > 100 µM (inactive); in the assay on COLO 205, > 100 µM (inactive); in the assay with SF-268, > 100 µM (inactive); with IGROV-1 it was 88.7 µM (inactive); in the assay on RPMI-8226 it was > 100 µM (inactive); with SK-MEL-28, 86.1 µM (inactive). Besides, the GI50 in the assay on MDA-N was > 100 µM (inactive); in the assay with SR, > 100 µM (inactive); in the assay with SF-295, 54.3 µM (inactive); with M14, > 100 µM (inactive).

Take `Cc1ccc(S(=O)(=O)NC(=O)NC(CCC(N)=O)C(=O)O)cc1` (stereo unspecified): the GI50 is > 100 µM (inactive) in the assay on PC-3; > 100 µM (inactive) in the assay on MCF7; > 100 µM (inactive) with Malme-3M; 64.3 µM (inactive) with HOP-92; > 100 µM (inactive) in the assay on MDA-MB-231; > 100 µM (inactive) in the assay on OVCAR-8. Also, the GI50 in the assay with COLO 205, in the assay with SF-268, in the assay on IGROV-1, with RPMI-8226, with SK-MEL-28 and in the assay with MDA-N was > 100 µM (inactive) in each case. Besides, the GI50 in the assay on SR, with SK-MEL-2, with SF-295 and in the assay with M14 was > 100 µM (inactive) in each case.

Regarding `CC1=CC2(C)C=C[C@@H]1C(=O)[C@@]1(C)CC[C@@](O)(C(C)C)[C@H]1CC2`, the GI50 with HCC 2998 was 17.5 µM (inactive); in the assay with PC-3, 24.2 µM (inactive); in the assay on A498 it was 28.6 µM (inactive); with MCF7, 28.4 µM (inactive); in the assay with OVCAR-3, 16.1 µM (inactive); with Malme-3M, 19.4 µM (inactive). The GI50 is 14.4 µM (inactive) in the assay with HOP-92; 17.5 µM (inactive) in the assay on MDA-MB-231; 17.1 µM (inactive) with OVCAR-8; 20.7 µM (inactive) in the assay with COLO 205; 23.8 µM (inactive) in the assay with SF-268; 26.2 µM (inactive) in the assay on IGROV-1. Also, the GI50 in the assay with RPMI-8226 was 26.5 µM (inactive); in the assay on SK-MEL-28 it was 20.9 µM (inactive); in the assay on MDA-N, 21.8 µM (inactive); with SK-MEL-2, 33.3 µM (inactive); in the assay with SF-295 it was 16.7 µM (inactive); in the assay with M14, 19.3 µM (inactive).

With `CCOc1ccc(N/C(=C(/C(Cl)=C(/Cl)Nc2ccccc2)[N+](=O)[O-])n2nnc3ccccc32)cc1`, the GI50 with HCC 2998 was 37.7 µM (inactive); with PC-3, 23.2 µM (inactive); in the assay on A498 it was > 100 µM (inactive); in the assay on MCF7 it was 35.7 µM (inactive); in the assay on OVCAR-3, 24.1 µM (inactive); with Malme-3M it was 21.9 µM (inactive). For the same molecule, the GI50 was 16 µM (inactive) in the assay with HOP-92; 24.5 µM (inactive) with MDA-MB-231; 20.7 µM (inactive) with COLO 205; 18.6 µM (inactive) in the assay with SF-268; 50.7 µM (inactive) in the assay on RPMI-8226; 22.8 µM (inactive) with SK-MEL-28. In addition, the GI50 in the assay with MDA-N is 19.8 µM (inactive); with SK-MEL-2, 26.3 µM (inactive); in the assay on SF-295, 51.3 µM (inactive); with M14, 16 µM (inactive).

For the molecule `CCC1(C)C=Cc2c(cc(OC)c3c(=O)c4ccccc4n(C)c23)O1` (stereo unspecified), the GI50 with HCC 2998 is > 10 µM (inactive); with PC-3, > 10 µM (inactive); with A498 it was > 10 µM (inactive); in the assay with MCF7, 0.785 µM (active); in the assay on OVCAR-3, 9.55 µM (inactive); in the assay on Malme-3M it was > 10 µM (inactive). Further, the GI50 in the assay with HOP-92, with MDA-MB-231, with OVCAR-8, in the assay with COLO 205, with SF-268 and with IGROV-1 was > 10 µM (inactive) each time. The GI50 in the assay with RPMI-8226 was 3.83 µM (inactive); in the assay on SK-MEL-28, 9.16 µM (inactive); in the assay with MDA-N, > 10 µM (inactive); in the assay on SK-MEL-2, > 10 µM (inactive); with SF-295, 3.56 µM (inactive); with M14, > 10 µM (inactive).

With `CCOC(=O)C(C/C=C/CO)N(C)C(=O)OC(C)(C)C` (stereo unspecified), the GI50 in the assay with PC-3, with A498, in the assay on MCF7, in the assay on OVCAR-3, with HOP-92 and in the assay on MDA-MB-231 was > 100 µM (inactive) in each case. Moreover, the GI50 was > 100 µM (inactive) with OVCAR-8; > 100 µM (inactive) in the assay on COLO 205; 92.9 µM (inactive) with SF-268; > 100 µM (inactive) with IGROV-1; > 100 µM (inactive) with RPMI-8226; > 100 µM (inactive) in the assay with SK-MEL-28. The GI50 is > 100 µM (inactive) in the assay on MDA-N; 94.8 µM (inactive) with SR; > 100 µM (inactive) with SK-MEL-2; > 100 µM (inactive) with SF-295; > 100 µM (inactive) with M14.

Regarding `CCCCCCCCCCCCCCCCCc1nc(Cl)nc(Cl)c1Cl`, the GI50 in the assay with HCC 2998 is > 100 µM (inactive); in the assay on PC-3 it was 38.1 µM (inactive); with MCF7, > 100 µM (inactive); in the assay on OVCAR-3 it was > 100 µM (inactive); in the assay on Malme-3M, > 100 µM (inactive); with HOP-92, > 100 µM (inactive). Also, the GI50 with MDA-MB-231 was > 100 µM (inactive); in the assay on OVCAR-8, > 100 µM (inactive); with COLO 205, > 100 µM (inactive); in the assay on SF-268 it was > 100 µM (inactive); with IGROV-1, > 100 µM (inactive); with RPMI-8226, 24.4 µM (inactive). In addition, the GI50 in the assay with SK-MEL-28 was > 100 µM (inactive); in the assay with MDA-N, > 100 µM (inactive); in the assay with SR it was 52.2 µM (inactive); with SF-295 it was > 100 µM (inactive); in the assay on M14, > 100 µM (inactive).

With `C/C=C/C[C@@H](C)C(=O)C1C(=O)N[C@@H](C(C)C)C(=O)N(C)CC(=O)N(C)[C@@H](CC(C)C)C(=O)N[C@@H](C(C)C)C(=O)N(C)[C@@H](CC(C)C)C(=O)N[C@@H](C)C(=O)N[C@@H](C)C(=O)N(C)[C@@H](CC(C)C)C(=O)N(C)[C@@H](CC(C)C)C(=O)N(C)[C@@H](C(C)C)C(=O)N1C` (stereo partly specified), the GI50 was 2.46 µM (inactive) in the assay with HCC 2998; 0.703 µM (active) in the assay with PC-3; 3.95 µM (inactive) in the assay with MCF7; 4.09 µM (inactive) in the assay on OVCAR-3; 7.26 µM (inactive) in the assay with HOP-92; 6.17 µM (inactive) in the assay with MDA-MB-231. For the same molecule, the GI50 with OVCAR-8 was 9.82 µM (inactive); in the assay on SF-268, 7.89 µM (inactive); in the assay with SK-MEL-28 it was 6.37 µM (inactive); in the assay with MDA-N it was 2.39 µM (inactive); with SR it was 4.07 µM (inactive); in the assay with SF-295 it was 7.28 µM (inactive). In addition, in the assay with M14, the GI50 was 6.28 µM (inactive).
